Test results as given in ChEMBL document CHEMBL3621110, “Discovery and Development of the Aryl O-Sulfamate Pharmacophore for Oncology and Women's Health” (J Med Chem, 2015).
Values belong to the compound of their own block, whether it stands above or below them.

Legend:
Rattus norvegicus [1] = species on record: Rattus norvegicus; experiment: animal or person; format: functional; conditions: Wistar, po, 3 h
Rattus norvegicus [2] = species on record: Rattus norvegicus; experiment: animal or person; format: functional; conditions: Wistar, po, 3 h; remark: listed apart in the source
Steryl-sulfatase [3] = molecular target: T1, Steryl-sulfatase (Homo sapiens, UniProt P08842); format: cell-based, JEG-3
T1 sequence (P08842 whole entry): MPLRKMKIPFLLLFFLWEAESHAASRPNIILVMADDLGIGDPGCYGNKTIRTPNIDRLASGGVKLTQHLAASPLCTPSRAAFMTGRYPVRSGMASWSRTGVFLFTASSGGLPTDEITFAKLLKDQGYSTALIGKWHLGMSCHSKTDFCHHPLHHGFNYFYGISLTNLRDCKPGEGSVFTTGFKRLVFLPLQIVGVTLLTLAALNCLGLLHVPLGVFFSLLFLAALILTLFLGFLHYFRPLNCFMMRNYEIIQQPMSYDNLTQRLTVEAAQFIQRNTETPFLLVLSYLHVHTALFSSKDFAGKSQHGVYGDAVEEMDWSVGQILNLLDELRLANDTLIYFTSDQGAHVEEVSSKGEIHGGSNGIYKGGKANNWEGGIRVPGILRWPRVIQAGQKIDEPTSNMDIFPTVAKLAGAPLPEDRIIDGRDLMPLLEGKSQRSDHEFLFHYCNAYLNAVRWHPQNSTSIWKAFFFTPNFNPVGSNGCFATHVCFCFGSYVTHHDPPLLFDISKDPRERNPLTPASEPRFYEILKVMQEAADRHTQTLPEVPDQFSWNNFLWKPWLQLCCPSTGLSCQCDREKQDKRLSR

Cytochrome P450 1A2 = molecular target: T2, Cytochrome P450 1A2 (Homo sapiens, UniProt P05177)
T2 sequence (P05177 whole entry): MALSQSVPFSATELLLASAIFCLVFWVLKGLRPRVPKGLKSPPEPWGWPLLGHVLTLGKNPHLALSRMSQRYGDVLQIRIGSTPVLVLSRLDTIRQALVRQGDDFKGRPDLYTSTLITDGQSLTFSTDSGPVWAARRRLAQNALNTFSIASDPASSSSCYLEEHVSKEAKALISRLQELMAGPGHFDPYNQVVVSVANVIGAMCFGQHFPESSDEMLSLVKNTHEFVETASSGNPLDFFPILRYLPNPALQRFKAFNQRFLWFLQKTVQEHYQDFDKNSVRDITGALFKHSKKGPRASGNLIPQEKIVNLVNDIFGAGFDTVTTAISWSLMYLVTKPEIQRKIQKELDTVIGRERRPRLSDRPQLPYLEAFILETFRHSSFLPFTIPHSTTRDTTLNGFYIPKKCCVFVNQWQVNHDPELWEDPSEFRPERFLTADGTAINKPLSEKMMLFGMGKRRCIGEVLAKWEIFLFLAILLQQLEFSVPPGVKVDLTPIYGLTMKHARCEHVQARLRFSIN

Estrogen receptor = molecular target: T3, Estrogen receptor (Homo sapiens, UniProt P03372)
T3 sequence (P03372 whole entry): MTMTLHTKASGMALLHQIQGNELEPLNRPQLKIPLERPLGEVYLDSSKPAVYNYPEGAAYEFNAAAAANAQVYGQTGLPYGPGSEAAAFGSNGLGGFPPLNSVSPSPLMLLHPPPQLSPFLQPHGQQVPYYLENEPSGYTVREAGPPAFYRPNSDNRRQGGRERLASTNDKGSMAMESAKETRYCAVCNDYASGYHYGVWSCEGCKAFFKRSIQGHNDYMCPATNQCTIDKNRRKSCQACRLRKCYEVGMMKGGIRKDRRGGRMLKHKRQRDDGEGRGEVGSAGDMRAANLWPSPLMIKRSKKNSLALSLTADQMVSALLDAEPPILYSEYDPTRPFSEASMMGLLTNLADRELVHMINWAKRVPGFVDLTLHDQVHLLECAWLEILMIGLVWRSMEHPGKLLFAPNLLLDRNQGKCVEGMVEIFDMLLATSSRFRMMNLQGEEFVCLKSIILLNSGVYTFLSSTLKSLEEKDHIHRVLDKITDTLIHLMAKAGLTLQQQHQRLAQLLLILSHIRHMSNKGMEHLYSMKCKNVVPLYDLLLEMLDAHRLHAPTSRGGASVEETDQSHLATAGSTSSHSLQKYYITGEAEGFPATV

Steryl-sulfatase [4] = molecular target: T1, Steryl-sulfatase; parameters: species or system Placenta, Microsome
MCF7 [5] = experiment: cells; format: functional; conditions: Homo sapiens
MCF7 [6] = experiment: cells; format: functional; conditions: Homo sapiens; remark: listed apart in the source
LNCaP = experiment: cells; format: functional, cell-based; conditions: Homo sapiens
cells [7] = format: functional, cell-based; conditions: Homo sapiens, PC-3
A2780cisR = experiment: cells; format: functional, cell-based; conditions: Homo sapiens
cells [8] = format: functional, cell-based; conditions: Homo sapiens, A2780 ADR
Steryl-sulfatase [9] = molecular target: T1, Steryl-sulfatase; format: microsomes, Placenta, Microsome
Rattus norvegicus [10] = species on record: Rattus norvegicus; experiment: animal or person; format: functional; conditions: Liver, po, 120 h
MCF7 [11] = experiment: animal or person; format: functional, Homo sapiens; conditions: Mus musculus, MCF7, po, 1176 h
MCF7 [12] = experiment: animal or person; format: functional, Homo sapiens; conditions: Mus musculus, MCF7, po, 1176 h; remark: listed apart in the source
Homo sapiens [13] = species on record: Homo sapiens; format: functional
Homo sapiens [14] = species on record: Homo sapiens; format: functional; remark: listed apart in the source
Rattus norvegicus [15] = species on record: Rattus norvegicus; experiment: animal or person; format: functional; conditions: Liver, po, 168 h
DU-145 = experiment: cells; format: functional; conditions: Homo sapiens, DU-145, 96 h
MDA-MB-231 = experiment: cells; format: functional; conditions: Homo sapiens, MDA-MB-231, 96 h
Steryl-sulfatase [16] = molecular target: T1, Steryl-sulfatase; format: cell-based, HEK293

IC50 (Steryl-sulfatase [3]): 26 nM
Structure (SMILES): N#Cc1ccc(N(Cc2ccc3c(Cl)c(OS(N)(=O)=O)ccc3c2)n2cnnc2)cc1
inhibition in vivo at 10 mg/kg (Rattus norvegicus [1]): 93%
inhibition in vivo at 10 mg/kg (Rattus norvegicus [2]): 93%

IC50 (Estrogen receptor): 24600 nM
Structure (SMILES): CCN(Cc1ccc(C(=O)N2CCc3ccc(O)cc3C2)cc1)Cc1ccccn1

GI50 (DU-145): 51 nM
GI50 (MDA-MB-231): 71 nM
Structure (SMILES): CCN(CC)CCOCC[C@@]1(C)CC[C@H]2[C@@H]3[C@H](C)Cc4cc(OS(N)(=O)=O)ccc4[C@H]3CC[C@@]21C

IC50 (Steryl-sulfatase [16]): 300 nM
IC50 (Estrogen receptor): 3100 nM
Structure (SMILES): CCN(Cc1ccc(C(=O)N2CCc3ccc(OS(N)(=O)=O)cc3C2)cc1)Cc1ccccn1

Continued, compound first:

Structure (SMILES): O=c1oc2cc(O)ccc2c2c1CCCCC2
Ki (Cytochrome P450 1A2): 770 nM

Structure (SMILES): COc1cc2c(cc1OS(N)(=O)=O)CC[C@@H]1[C@@H]2CC[C@]2(C)C(=O)CC[C@@H]12
IC50 (Steryl-sulfatase [4]): 30 nM
GI50 (MCF7 [5]): 300 nM
inhibition at 1 µM (MCF7 [6]): 52%
IC50 (LNCaP): 100 nM
IC50 (cells [7]): 100 nM
IC50 (A2780cisR): 100 nM
IC50 (cells [8]): 100 nM

Structure (SMILES): CCCN1C(=O)C[C@H]2[C@@H]3CCc4cc(OS(N)(=O)=O)ccc4[C@H]3CC[C@]2(C)C1=O
IC50 (Steryl-sulfatase [9]): 1 nM
inhibition in vivo at 10 mg/kg/day (Rattus norvegicus [10]): 99%
inhibition in vivo at 10 mg/kg (MCF7 [11]): 56%
inhibition in vivo at 10 mg/kg (MCF7 [12]): 39%

Structure (SMILES): C[C@]12CC[C@@H]3c4ccc(OS(N)(=O)=O)cc4CC[C@H]3[C@@H]1CC[C@@H]2O [E2MATE]
inhibition (INH) (Homo sapiens [13]): 91%
inhibition (INH) (Homo sapiens [14]): 96%

Structure (SMILES): Cc1cc(=O)oc2cc(OS(N)(=O)=O)ccc12
inhibition in vivo at 10 mg/kg/day (Rattus norvegicus [15]): 85%
